Measured values published in the NIST ThermoML archive (doi:10.1016/j.fluid.2018.01.026).
± gives the expanded uncertainty stated by the source.

Conditions: 101.33 kPa, Liquid, Vibrating tube method

SMILES | mass density (293.15 K) [kg/m3] | mass density (298.15 K) [kg/m3] | mass density (303.15 K) [kg/m3] | mass density (308.15 K) [kg/m3] | mass density (313.15 K) [kg/m3] | mass density (318.15 K) [kg/m3] | mass density (323.15 K) [kg/m3] | mass density (328.15 K) [kg/m3] | mass density (333.15 K) [kg/m3]
CC(=O)CO [acetol] | 1080.13 ± 6.3 | 1074.92 ± 6.3 | 1069.67 ± 6.2 | 1064.31 ± 6.1 | 1058.71 ± 6.1 | 1053.13 ± 6 | 1047.55 ± 5.9 | 1042.01 ± 5.9 | 1036.62 ± 5.8
CCCCOC(C)=O [butyl ethanoate] | 880.61 ± 1 | 875.45 ± 1 | 870.27 ± 1 | 865.08 ± 1 | 859.86 ± 1 |  |  |  | 
CCOC(C)=O [ethyl acetate] | 900.48 ± 1 | 894.36 ± 1 | 888.19 ± 1 | 881.98 ± 1 | 875.73 ± 1 |  |  |  | 
CCCOC(C)=O [propyl ethanoate] | 887.8 ± 1 | 882.19 ± 1 | 876.56 ± 1 | 870.9 ± 1 | 865.21 ± 1 |  |  |  | 
